Broadly, the GI50 is the concentration that inhibits growth by half.

Structures are written as SMILES. Where two headings read alike, the source gives them in different places. Bridge positions count the residues as written; N and C are the ends. Square brackets hold non-standard residues; d marks the D form. Peptide text beside a SMILES is read from it. Lys(iPr) = CC(C)NCCCC[C@H](N)C(=O)O; Orn(iPr) = CC(C)NCCC[C@H](N)C(=O)O

Data set [1] is described as follows: Plasma protein binding. To be noted: human, plasma. The class given is in vitro ADME. On the procedure: 495 μL aliquots of human plasma (Basler Blutspendedienst) as well as 495 μL aliquots of PBS were placed in individual deepwells of a polypropylene plate (Greiner) and spiked each with 5 μL of 1 mM solutions of peptides in 90% DMSO. After shaking the plate for 2 min at 600 rpm 150 μL aliquots of the plasma/peptide mixtures were transferred in triplicates to the polypropylene filter plate (10 kDa, Millipore) whereas 150 μL aliquots of the PBS/peptide mixtures were transferred either to the individual wells of the filter plate (filtered controls) or directly into the individual wells of the receiving plate (Greiner) (non-filtered controls). The plate sandwich consisting of filter and receiving plate was incubated for 1 h at 37° C. and subsequently centrifuged at 3220 g for 2 h at 15° C. The filtrates in the receiving plate were analysed by LC/MS as follows: Column: Waters, XBridge C18, mobile phases: (A) water+0.1% formic acid and (B) acetonitrile/water, 95/5 (v/v)+0.1% formic acid, gradient: 5%-100% (B) in 1.8 min, electrospray ionization, MRM detection (triple quadrupole). The peak areas were determined and triplicate values are averaged. The binding is expressed in percent of the filtered and non-filtered controls by 100−(100×T1h/Tctr). Finally the average of these values is calculated.

A short description of data set [2]: Plasma stability, human plasma. The format is in vitro ADME. The note with it: 37° C., 1440 min, read-out: human pl. cpd left at 1440 min. On the procedure: The stability of the peptides in human and mouse plasma was determined by applying the following method: 346.5 μL/deep well of freshly thawed human plasma (Basler Blutspende-dienst) and mouse plasma (Harlan Sera-Lab, UK), respectively, were spiked with 3.5 μL/well of compound dissolved in DMSO/H2O (90/10 [v/v], 1 mM, triplicate) and incubated at 37° C. At t=0, 15, 30, 60, 120, 240 and 1440 min aliquots of 50 μL were transferred to filtration plate wells containing 150 μL/well of 2% formic acid in acetonitrile. Following shaking for 2 min the occurred suspensions were filtrated by vacuum. 100 μL of each filtrate were transferred to a propylene microtiter plate and dried under N2. The residual solids were reconstituted by adding 100 μL/well of water/acetonitrile, 95/5 (v/v)+0.2% formic acid and analyzed by LC/MS as follows: Column: Waters, XBridge C18, mobile phases: (A) water+0.1% formic acid and (B) acetonitrile/water, 95/5 (v/v)+0.1% formic acid, gradient: 5%-100% (B) in 1.8 minutes, electrospray ionization, MRM detection (triple quadrupole). The peak areas were determined and triplicate values are averaged. The stability is expressed in percent of the initial value at t=0·(tx/t0×100). By using the TREND function of EXCEL (Microsoft Office 2003) T1/2 were determined.

The nature of data set [3]: Cytotoxicity, MTT reduction assay, HELA cells. The format is cell-based. To be noted: human. On the procedure:
Namalwa cells (CXCR4 natively expressing non-adherent cells, ATCC CRL-1432) were cultured in RPMI1640 plus 10% FBS, and pen/strept. HELA cells were maintained in RPMI1640 plus 10% FBS, pen/strept and 2 mM L-glutamine. Cos-7 cells were grown in DMEM medium with […] glucose supplemented with 10% FCS, pen/strept and 2 mM L-glutamine. All cell lines were grown at 37° C. at 5% CO2. Cell media, media supplements, PBS-buffer, HEPES, antibiotic/antimycotic, pen/strept, non essential amino acid, L-glutamine, β-mercaptoethanol and sera were purchased from Gibco (Pailsey, UK). All fine chemicals were supplied by Merck (Darmstadt, Germany).
The cytotoxicity of the peptides to HELA cells (Acc57) and COS-7 cells (CRL-1651) was determined using the MTT reduction assay (T. Mossman, J. Immunol. Meth. 1983, 65, 55-63; M. V. Berridge, A. S. Tan, Arch. Biochem. Biophys. 1993, 303, 474-482). Briefly, the method was as follows: 4000 HELA cells/well and 3400 COS-7 cells/well were seeded and grown in 96-well microtiter plates for 24 h at 37° C. at 5% CO2. Thereafter, time zero (Tz) was determined by MTT reduction (see below). The supernatant of the remaining wells was discarded, and fresh medium and compounds in serial dilutions (12.5, 25 and 50 μM, triplicates; 0 μM, blank) were pipetted into the wells. After incubation of the cells for 48 h at 37° C. at 5% CO2 the supernatant was discarded again and 100 μL MTT reagent (0.5 mg/mL in RPMI1640 and DMEM, respectively)/well was added. Following incubation at 37° C. for 2-4 h the media were aspirated and the cells were spiked (100 μL isopropanol/well). The absorbance of the solubilized formazan was measured at 595 nm (OD595peptide). For each concentration averages were calculated from triplicates. The percentage of growth was calculated as follows: (OD595peptide−OD595Tz)/(OD595blank−OD595Tz)×100%. The GI50 (Growth Inhibition) concentrations were calculated for each peptide by using a trend line function for the concentrations (50, 25, 12.5 and 0 μM), the corresponding percentages and the value 50, (=TREND (C50:C0,%50:%0,50).
Background: Tetrazolium dyes change colour on reduction, which living cells bring about.

Data set [4] concerns HSC mobilization. As to the kind of experiment: HSC mobilization in mouse, dose-response study (CFU-C assay). The class given is in vivo. To be noted: C57Bl/6 mice, 5 mg/kg i.p., at time of maximum mobilization (Ex. 1 4 h, Ex. 2 2 h). The protocol: For the compounds of Ex. 1 and Ex. 2 a HSC mobilization study was performed consisting of a time-response study to assess the time of maximum mobilization after dosing and a subsequent dose-response study.
Male C57Bl/6 mice (Janvier, France; n=5 per dose group for Ex. 1, n=3 per dose group for Ex. 2) received bolus i.p. injections of Ex. 1 and Ex. 2, respectively, at doses of 0.5, 1.5, 5 and 15 mg/kg (compound dissolved in 10 μL of water per g mouse weight containing 0.9% NaCl). Blood was collected as described above at the time of maximum mobilization for Ex. 1 (4 h) and Ex. 2 (2 h), respectively.
CFU-C counts were determined by culturing aliquots of lysed peripheral blood in standard semi-solid progenitor cell culture medium. In brief, a defined amount of blood was washed with PBS buffer (Gibco®) containing 0.5% bovine serum albumin, followed by red blood cell lysis in hypotonic NH4Cl buffer (Sigma) and a second wash step. The cell pellet was resuspended in DMEM (Gibco®) containing 10% FCS, suspended in 2 mL of commercially available, cytokine-replete methylcellulose medium for murine cells (Cell Systems, USA), and plated in duplicate into 35 mm cell culture dishes. CFU-C were scored after 7-8 days incubation under standard conditions (20% O2, saturated humidity, 5% CO2, 37° C.). Peripheral blood cellularity was analyzed using an automated blood count machine (Drew Scientific). […]

On to `COc1ccc(C[C@@H]2NC(=O)[C@H](Cc3c[nH]cn3)NC(=O)[C@H](Cc3ccc(O)cc3)NC(=O)[C@@H]3CCCN3C(=O)[C@H]3CCCN3C(=O)[C@H](CCCCNC(C)C)NC(=O)[C@H](CCC(N)=O)NC(=O)[C@H](Cc3ccc(O)cc3)NC(=O)[C@@H]3CSSC[C@H](NC2=O)C(=O)N[C@@H](CO)C(=O)N[C@@H](C)C(=O)N2CCC[C@@H]2C(=O)N[C@@H](CCCNC(C)C)C(=O)N[C@@H](CCCNC(=N)N)C(=O)N[C@@H](Cc2ccc(O)cc2)C(=O)N3)cc1` [Ex. 2, cyclo(-Tyr^1-His^2-Tyr(Me)^3-Cys^4-Ser^5-Ala^6-^DPro^7-Orn(iPr)^8-Arg^9-Tyr^10-Cys^11-Tyr^12-Gln^13-Lys(iPr)^14-^DPro^15-Pro^16-), disulfide bond between Cys^4 and Cys^11] (cyclo(YHY(Me)CSA[dP][Orn(iPr)]RYCYQ[Lys(iPr)][dP]P); disulfide 4-11), for which the fraction unbound in data set [1] (read-out: Fraction unbound, fu) is 0.52; in data set [1] (ultrafiltration 10 kDa, read-out: Plasma protein binding (converted)) it was 0.52. Also, the remaining at 24 h in data set [2] came to 100%. For the same compound, the GI50 at 48 h in data set [3] is more than 41 µM. Besides, the “CFU/mL ± SD” value in data set [4] is on record as 2894 CFU/mL.
